# Results from ChEMBL document CHEMBL5346967, “Discovery of BI 7446: A Potent Cyclic Dinucleotide STING Agonist with Broad-Spectrum Variant Activity for the Treatment of Cancer” (J Med Chem, 2023).
# Legend:
# [1] = Protein binding in mouse plasma assessed as unbound fraction at 3 uM incubated for 2 hrs by equilibrium dialysis based HPLC/MS/MS analysis; assay type: ADME, cell-free
# [2] = target: hERG (KCNH2) (Homo sapiens, UniProt Q12809); assay: Inhibition of human ERG at 10 uM; assay type: toxicity
# Sequence of hERG (KCNH2) (Q12809 whole entry): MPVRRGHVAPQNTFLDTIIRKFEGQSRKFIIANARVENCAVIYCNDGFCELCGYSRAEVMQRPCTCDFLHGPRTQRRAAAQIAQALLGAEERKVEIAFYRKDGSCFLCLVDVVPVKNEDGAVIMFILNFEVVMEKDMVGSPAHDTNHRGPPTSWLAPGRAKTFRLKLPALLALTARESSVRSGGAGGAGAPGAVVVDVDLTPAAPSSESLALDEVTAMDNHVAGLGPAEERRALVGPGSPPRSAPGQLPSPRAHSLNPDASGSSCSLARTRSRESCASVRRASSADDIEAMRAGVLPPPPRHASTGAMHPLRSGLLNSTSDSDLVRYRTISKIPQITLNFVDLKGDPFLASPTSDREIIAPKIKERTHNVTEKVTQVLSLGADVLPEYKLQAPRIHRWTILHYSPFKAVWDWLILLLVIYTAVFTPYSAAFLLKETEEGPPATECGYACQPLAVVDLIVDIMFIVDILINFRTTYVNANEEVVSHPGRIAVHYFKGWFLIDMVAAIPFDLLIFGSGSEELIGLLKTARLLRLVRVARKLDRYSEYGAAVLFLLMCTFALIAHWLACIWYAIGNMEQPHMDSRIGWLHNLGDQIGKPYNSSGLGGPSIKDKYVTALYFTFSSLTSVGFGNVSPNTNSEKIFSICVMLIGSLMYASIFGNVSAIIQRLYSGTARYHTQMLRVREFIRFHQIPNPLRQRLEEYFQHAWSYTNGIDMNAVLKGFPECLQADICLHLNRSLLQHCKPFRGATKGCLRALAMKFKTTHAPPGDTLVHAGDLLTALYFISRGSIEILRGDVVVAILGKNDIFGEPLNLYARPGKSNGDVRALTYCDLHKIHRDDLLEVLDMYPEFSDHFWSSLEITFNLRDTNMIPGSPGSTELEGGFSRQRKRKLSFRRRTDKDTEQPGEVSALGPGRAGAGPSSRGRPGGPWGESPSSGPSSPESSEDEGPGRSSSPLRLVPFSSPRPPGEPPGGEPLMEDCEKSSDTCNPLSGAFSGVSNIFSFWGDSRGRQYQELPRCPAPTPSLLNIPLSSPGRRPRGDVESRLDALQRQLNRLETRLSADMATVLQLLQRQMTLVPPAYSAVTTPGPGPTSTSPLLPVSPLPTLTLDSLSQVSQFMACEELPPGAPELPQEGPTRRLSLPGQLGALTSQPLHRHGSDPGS
# [3] = Volume of distribution at steady state in C57BL/6 mouse at 1 micromol/kg, iv by HPLC/MS/MS analysis; assay type: ADME, organism-based; conditions: in vivo, dose 1 µmol/kg, read-out: Vdss
# [4] = Stability in mouse plasma assessed as half life at 1 uM by HPLC/MS/MS analysis; assay type: ADME, cell-free
# [5] = Clearance in C57BL/6 mouse plasma assessed as hepatic blood flow at 1 micromol/kg, iv by HPLC/MS/MS analysis; assay type: ADME, organism-based; conditions: in vivo, at 1 µmol/kg
# [6] = target: T1, Stimulator of interferon genes protein (Mus musculus) (UniProt Q3TBT3); conditions: filed as agonist
# T1 sequence (whole entry): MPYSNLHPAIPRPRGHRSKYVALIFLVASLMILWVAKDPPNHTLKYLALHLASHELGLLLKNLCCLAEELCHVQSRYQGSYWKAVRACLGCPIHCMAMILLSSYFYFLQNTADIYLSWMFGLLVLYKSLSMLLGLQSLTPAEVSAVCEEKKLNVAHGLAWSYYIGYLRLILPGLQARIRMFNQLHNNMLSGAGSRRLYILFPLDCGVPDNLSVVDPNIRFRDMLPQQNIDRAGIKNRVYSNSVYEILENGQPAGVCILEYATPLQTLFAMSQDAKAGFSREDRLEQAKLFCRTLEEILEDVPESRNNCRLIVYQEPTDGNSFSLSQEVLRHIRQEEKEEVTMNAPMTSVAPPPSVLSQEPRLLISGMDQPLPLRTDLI
# Description: Binding affinity to recombinant mouse STING assessed as change in melting temperature by differential scanning fluorimetry
# [7] = MRT in C57BL/6 mouse at 1 micromol/kg, iv by HPLC/MS/MS analysis; assay type: ADME, organism-based; conditions: in vivo, dose 1 µmol/kg
# [8] = target: T2, Stimulator of interferon genes protein (Homo sapiens, UniProt Q86WV6); assay: Agonist activity at human STING AQ variant overexpressed in STING knockout human THP1-Blue ISG cells expressing IRF inducible SEAP reporter construct assessed as increase in interferon production by measuring SEAP activity incubated for 24 hrs by Fingerprinting based QUANTI-Blue colorimetric assay; assay type: cell-based
# Target sequence in this assay (Q86WV6 whole entry, looked up, change not shown): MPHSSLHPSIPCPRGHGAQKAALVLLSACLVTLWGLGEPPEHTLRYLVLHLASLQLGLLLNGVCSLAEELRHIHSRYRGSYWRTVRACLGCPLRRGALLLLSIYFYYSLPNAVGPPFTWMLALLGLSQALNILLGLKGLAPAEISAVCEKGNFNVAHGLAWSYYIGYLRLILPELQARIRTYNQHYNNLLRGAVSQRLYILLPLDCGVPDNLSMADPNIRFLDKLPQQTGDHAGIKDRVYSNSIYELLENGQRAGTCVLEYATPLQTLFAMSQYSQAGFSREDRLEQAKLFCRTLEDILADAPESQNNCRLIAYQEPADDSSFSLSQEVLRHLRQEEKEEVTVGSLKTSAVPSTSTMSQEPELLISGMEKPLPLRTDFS
# [9] = target: T2, Stimulator of interferon genes protein; assay: Agonist activity at human STING in STING knockout human THP1-Blue ISG cells expressing IRF inducible SEAP reporter construct assessed as increase in interferon production by measuring SEAP activity incubated for 24 hrs by Fingerprinting based QUANTI-Blue colorimetric assay; assay type: cell-based
# Target sequence in this assay (Q86WV6 whole entry): as the sequence (Q86WV6 whole entry, looked up, change not shown) above
# [10] = target: T2, Stimulator of interferon genes protein; assay: Agonist activity at human STING REF variant overexpressed in STING knockout human THP1-Blue ISG cells expressing IRF inducible SEAP reporter construct assessed as increase in interferon production by measuring SEAP activity incubated for 24 hrs by Fingerprinting based QUANTI-Blue colorimetric assay; assay type: cell-based
# Target sequence in this assay (Q86WV6 whole entry, looked up, change not shown): as above
# [11] = target: T2, Stimulator of interferon genes protein; conditions: filed as agonist
# Target sequence in this assay (Q86WV6 whole entry): as the sequence (Q86WV6 whole entry, looked up, change not shown) above
# Description: Binding affinity to recombinant human wild type STING (155 to 341 residues) expressed in Escherichia coli BL21 DE3 assessed as thermal stabilization by measuring change in melting temperature by differential scanning fluorimetry
# [12] = target: T2, Stimulator of interferon genes protein; assay: Agonist activity at human STING expressed in human THP-1 cells expressing IRF inducible SEAP reporter construct assessed as increase in interferon production incubated for 24 hrs by QUANTI-Blue colorimetric assay; assay type: cell-based
# Target sequence in this assay (Q86WV6 whole entry): as the sequence (Q86WV6 whole entry, looked up, change not shown) above
# [13] = target: T2, Stimulator of interferon genes protein; assay: Agonist activity at human STING Q variant overexpressed in STING knockout human THP1-Blue ISG cells expressing IRF inducible SEAP reporter construct assessed as increase in interferon production by measuring SEAP activity incubated for 24 hrs by Fingerprinting based QUANTI-Blue colorimetric assay; assay type: cell-based
# Target sequence in this assay (Q86WV6 whole entry, looked up, change not shown): as above
# [14] = target: T2, Stimulator of interferon genes protein; assay: Agonist activity at human STING HAQ variant overexpressed in STING knockout human THP1-Blue ISG cells expressing IRF inducible SEAP reporter construct assessed as increase in interferon production by measuring SEAP activity incubated for 24 hrs by Fingerprinting based QUANTI-Blue colorimetric assay; assay type: cell-based
# Target sequence in this assay (Q86WV6 whole entry, looked up, change not shown): as above
# [15] = target: T2, Stimulator of interferon genes protein; assay: Agonist activity at human wild type STING overexpressed in STING knockout human THP1-Blue ISG cells expressing IRF inducible SEAP reporter construct assessed as increase in interferon production by measuring SEAP activity incubated for 24 hrs by Fingerprinting based QUANTI-Blue colorimetric assay; assay type: cell-based
# Target sequence in this assay (Q86WV6 whole entry): as the sequence (Q86WV6 whole entry, looked up, change not shown) above
# [16] = Aqueous solubility of compound in phosphate buffer at pH 7.6 incubated for 2 hrs by HPLC-UV analysis; assay type: physicochemical
# [17] = Aqueous solubility of compound in 0.9% NaCl buffer at pH 6.4 incubated for 2 hrs by HPLC-UV analysis; assay type: physicochemical
# [18] = Chemical stability of compound in phosphate buffer assessed as compound degradation at 1 mg/ml incubated for 8 weeks at 40 degreeC by HPLC-UV analysis; assay type: physicochemical; conditions: read-out: Drug degradation
# [19] = Clearance in C57BL/6 mouse plasma assessed as hepatic blood flow at 10 micromol/kg, iv by HPLC/MS/MS analysis; assay type: ADME, organism-based; conditions: in vivo, at 10 µmol/kg
# [20] = MRT in C57BL/6 mouse at 10 micromol/kg, iv by HPLC/MS/MS analysis; assay type: ADME, organism-based; conditions: in vivo, dose 10 µmol/kg
# [21] = Elimination half life in BALB/c syngeneic mouse tumor xenografted with mouse 4T1 cells at 0.16 to 1.4 mg/kg,IT and measured upto 25 hrs by HPLC/MS/MS analysis; assay type: ADME, organism-based, Neoplasm; conditions: dose 0.16-1.4 mg/kg, read-out: beta t1/2 (converted)
# [22] = Chemical stability of compound in 0.9% NaCl buffer assessed as compound degradation at 1 mg/ml incubated for 8 weeks at 40 degreeC by HPLC-UV analysis; assay type: physicochemical; conditions: read-out: Drug degradation
# [23] = Protein binding in human plasma assessed as unbound fraction at 3 uM incubated for 2 hrs by equilibrium dialysis based HPLC/MS/MS analysis; assay type: ADME, cell-free
# [24] = Volume of distribution at steady state in C57BL/6 mouse at 10 micromol/kg, iv by HPLC/MS/MS analysis; assay type: ADME, organism-based; conditions: in vivo, dose 10 µmol/kg, read-out: Vdss
# [25] = Stability in human plasma assessed as half life at 1 uM by HPLC/MS/MS analysis; assay type: ADME, cell-free
EC50 [8] [nM],EC50 [9] [nM],EC50 [10] [nM],deltaTm [11] [K],EC50 [12] [nM],EC50 [13] [nM],EC50 [14] [nM],EC50 [15] [nM],SMILES,other results
,,,,,,,,Nc1ncnc2c1ncn2[C@@H]1O[C@@H]2CO[P@@](=O)(S)O[C@@H]3[C@H](O)[C@@H](CO[P@@](=O)(S)O[C@H]2[C@H]1O)O[C@H]3n1cnc2c(N)ncnc21,"fraction unbound at 2 h, 3 µM [1]: 0.32; inhibition at 10 µM [2]: 0.4%; Vd [3]: 0.8 L/kg; half-life at 1 µM [4]: > 2.17 h; QH [5]: 120%; deltaTm [6]: 13.5 K; MRT [7]: 7.2 min"
610,> 50000,6010,23.9,160,1880,580,580,Nc1ncnc2c1ncn2[C@@H]1O[C@@H]2CO[P@@](=O)(S)O[C@@H]3[C@H](O)[C@@H](CO[P@@](=O)(S)O[C@H]2[C@H]1F)O[C@H]3n1cnc2c(=O)[nH]nnc21,
680,> 50000,24300,18,140,3380,1040,830,Nc1ncnc2c1ncn2[C@@H]1O[C@@H]2CO[P@@](=O)(S)O[C@@H]3[C@H](O)[C@@H](CO[P@@](=O)(S)O[C@H]2[C@H]1F)O[C@H]3c1cnn2c(=O)[nH]ncc12,
,,,,,,,,Nc1ncnc2c1ncn2[C@@H]1O[C@@H]2CO[P@@](=O)(S)O[C@@H]3[C@H](O)[C@@H](CO[P@@](=O)(S)O[C@H]2[C@H]1F)O[C@H]3n1cnc2c(=O)[nH]ncc21,"solubility at 2 h [16]: > 10000 µg/mL; solubility at 2 h [17]: > 10000 µg/mL; degraded at 1344 h, 1 mg/ml [18]: > 0.5%; QH [19]: 78%; MRT [20]: 0.53 h; fraction unbound at 2 h, 3 µM [1]: 0.77; inhibition at 10 µM [2]: 1%; half-life at 1 µM [4]: > 2.17 h; half-life [21]: 7 h; degraded at 1344 h, 1 mg/ml [22]: > 0.5%; fraction unbound at 2 h, 3 µM [23]: 0.74; Vd [24]: 2.2 L/kg; half-life at 1 µM [25]: > 2.17 h"
,,,3.6,> 100000,,,,O=c1[nH]ncc2c1ncn2[C@@H]1O[C@@H]2CO[P@@](=O)(S)O[C@H]3[C@@H](O)[C@H](n4cnc5ccccc54)O[C@@H]3CO[P@@](=O)(S)O[C@@H]1[C@@H]2O,
,,,3.7,> 100000,,,,CO[C@@H]1[C@@H]2O[P@](=O)(S)OC[C@H]3O[C@@H](n4cnc5c(=O)[nH]ncc54)[C@H](O[P@](=O)(S)OC[C@H]2O[C@H]1n1cnc2c(N)ncnc21)[C@@H]3O,
1670,> 50000,> 50000,13.9,230,22500,2060,1950,O=c1[nH]ncc2c1ncn2[C@@H]1O[C@@H]2CO[P@@](=O)(S)O[C@H]3[C@@H](O)[C@H](n4cnc5cncnc54)O[C@@H]3CO[P@@](=O)(S)O[C@@H]1[C@@H]2O,
,,,17,170,,,,Nc1ncnc2c1ncn2[C@@H]1O[C@@]23CO[C@@H]1[C@@H]2O[P@](=O)(S)OC[C@H]1O[C@@H](n2cnc4c(=O)[nH]ncc42)[C@H](O[P@](=O)(S)OC3)[C@@H]1O,
,,,1.75,> 100000,,,,Nc1ncnc2c1ncn2[C@@H]1CO[C@@H]2O[P@@](=O)(S)O[C@@H]3[C@H](O)[C@@H](CO[P@@](=O)(S)O[C@H]2[C@H]1O)O[C@H]3n1cnc2c(=O)[nH]ncc21,
